In patent US20100234417A1, “THYROTROPIN RELEASING HORMONE RECEPTOR-OREXIN RECEPTOR HETERO-DIMERS/-OLIGOMERS” (DIMERIX BIOSCIENCE PTY LTD., priority 2006, published 2010):

Key:
[1] = tested on: animals studied (narcolepsy); conditions: cited from earlier work
[2] = tested on: thyrotropin releasing hormone receptor/orexin receptor hetero-dimer/-oligomer (TRHR with OxR2); test: eBRET/BRET detection of TRHR-OxR2 association: TRHR/Rluc + tagged beta-arrestin + OxR2 as IG3 in HEK293 cells; type: cell-based; conditions: OxR2, FIG. 6
Protocol: (§1) Briefly, referring to FIGS. 1 to 3, the IGs are provided in the form of the two receptors (TRHR and OxR). One of the two is attached to an RC (IG1-RC1, IG3). A second IG (IG2-RC2) is derived from a molecule that interacts with the receptors upon ligand binding (e.g. beta-arrestin, or a mutant thereof).
Cells were seeded in 6-well plates at a density of approximately 630,000 cells/well (HEK293FT) or approximately 150,000 cells/well (COS-7) and maintained at 37° C., 5% CO2 in Complete Media (DMEM containing 0.3 mg/ml glutamine, 100 IU/ml penicillin and 100 μg/ml streptomycin (Gibco)) supplemented with 10% fetal calf serum (FCS; Gibco). Transient transfections were carried out 24 h after seeding using GeneJuice (Novagen) or Metafectene (Biontex) according to manufacturer instructions. 24 h post-transfection, cells were washed with PBS, detached using 0.05% trypsin/0.53 mM EDTA, resuspended in HEPES-buffered phenol red free Complete Media containing 5% FCS and added to a poly-L-lysine-coated white microplate (Nunc). 48 h post-transfection, eBRET assays were carried out following pre-incubation of cells with EnduRen™ (Promega) at a final concentration of 30-40 μM, at 37° C., 5% CO2 for 2 h. For original BRET studies, the HEPES-buffered phenol red free Complete Media was replaced with PBS and coelenterazine h (Molecular Probes) added to a final concentration of 5 μM immediately prior to commencing the assay. […] Filtered light emissions were sequentially measured for 3-5 s in each of the ‘donor wavelength window’ (400-475 nm) and ‘acceptor wavelength window’ (>500 nm for EGFP or 520-540 nm for EYFP, Topaz (TYFP) or Venus). The BRET signal observed between interacting proteins is normalized by subtracting the background BRET ratio. […] In the following examples, the first calculation will be used, unless the signal is described as the ‘ligand-induced BRET ratio’. […] In this case, data are shown as ‘fluorescence/luminescence’ being the ratio of light emission through the ‘acceptor wavelength window’ over the 400-475 nm emission for a particular cell sample. Unless otherwise stated, BRET signals were measured in 96-well microplates. […]
Cells not pretreated with antagonist were pretreated with PBS instead for the same amount of time. […]

[3] = tested on: thyrotropin releasing hormone receptor/orexin receptor hetero-dimer/-oligomer (TRHR with OxR1); test: eBRET: TRHR/Rluc + barr2/Venus + OxR1 as IG3 in HEK293 cells; type: cell-based; conditions: OxR1, FIG. 6
Protocol: as §1
Cells were seeded in 6-well plates at a density of approximately 630,000 cells/well (HEK293FT) or approximately 150,000 cells/well (COS-7) and maintained at 37° C., 5% CO2 in Complete Media (DMEM containing 0.3 mg/ml glutamine, 100 IU/ml penicillin and 100 μg/ml streptomycin (Gibco)) supplemented with 10% fetal calf serum (FCS; Gibco). Transient transfections were carried out 24 h after seeding using GeneJuice (Novagen) or Metafectene (Biontex) according to manufacturer instructions. 24 h post-transfection, cells were washed with PBS, detached using 0.05% trypsin/0.53 mM EDTA, resuspended in HEPES-buffered phenol red free Complete Media containing 5% FCS and added to a poly-L-lysine-coated white microplate (Nunc). 48 h post-transfection, eBRET assays were carried out following pre-incubation of cells with EnduRen™ (Promega) at a final concentration of 30-40 μM, at 37° C., 5% CO2 for 2 h. For original BRET studies, the HEPES-buffered phenol red free Complete Media was replaced with PBS and coelenterazine h (Molecular Probes) added to a final concentration of 5 μM immediately prior to commencing the assay. […] Filtered light emissions were sequentially measured for 3-5 s in each of the ‘donor wavelength window’ (400-475 nm) and ‘acceptor wavelength window’ (>500 nm for EGFP or 520-540 nm for EYFP, Topaz (TYFP) or Venus). The BRET signal observed between interacting proteins is normalized by subtracting the background BRET ratio. […] In this case, data are shown as ‘fluorescence/luminescence’ being the ratio of light emission through the ‘acceptor wavelength window’ over the 400-475 nm emission for a particular cell sample. Unless otherwise stated, BRET signals were measured in 96-well microplates. […]

[4] = dose- and time-dependent manner
[5] = 10^−6M SB-334867-A approx. 40 minutes before 10^−6M OxA
[6] = 10^−6M SB-334867-A approx. 40 minutes before 10^−6M TRH and OxA

SMILES	rapid eye movement (REM) sleep [1, 4]	slow wave sleep (SWS) [1, 4]	cataplexy ([1]; in most of the animals studied)	effect of antagonist pretreatment on OxA-induced eBRET signal [2, 5]	effect of antagonist pretreatment on TRH + OxA-induced eBRET signal [2, 6]	effect of antagonist pretreatment on OxA-induced eBRET signal [3, 5]	effect of antagonist pretreatment on TRH + OxA-induced eBRET signal [3, 6]
CN1C(=O)C[C@@H](C(=O)N[C@@H](Cc2c[nH]cn2)C(=O)N2CCC[C@H]2C(N)=O)NC1=O.O.O.O.O [TA-0910]	significantly reduced	significantly reduced	completely suppressed				
Cc1nc2ccc(NC(=O)Nc3ccnc4cccnc34)cc2o1.Cl [SB-334867-A, 1-(2-methylbenzoxazol-6-yl)-3-[1,5]naphthyridin-4-yl urea hydrochloride]				not affected	did not differ	reduced	reduced
